Source: patent US10294202B2, “Pyrrolidinones as herbicides” (FMC Corporation, priority 2013, dated 2019)

What was measured:
wheat = assay: Test A pre-/postemergence herbicide test; assay type: in vivo, Triticum aestivum; details: Postemergence
Method in brief: (§1)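 Visual injury ratings, 0 = no effect, 100 = complete control, taken ~10 days after treatment against untreated greenhouse controls. Preemergence: directed soil spray onto seeded loam/sand pots. Postemergence: spray onto plants at one- to two-leaf stage, 2–10 cm tall.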

pigweed = assay: Test A pre-/postemergence herbicide test; assay type: in vivo, Amaranthus retroflexus
Method in brief: as §1

barnyardgrass [1] = assay: Test A pre-/postemergence herbicide test; assay type: in vivo, Echinochloa crus-galli
Method in brief: as §1

ducksalad = assay: Test B flooded paddy test; assay type: in vivo, Heteranthera limosa; details: 500 g ai/ha, Flood; scale of 0 to 100 where 0 is no effect and 100 is complete control
Method in brief: (§2)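 Visual ratings from 0, meaning no effect, up to 100, meaning complete control, were made by comparison with untreated controls 13 to 15 days after treatment. Test compounds went straight into floodwater standing 3 cm over the soil of pots holding 2-leaf seedlings.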

barnyardgrass [2] = assay: Test B flooded paddy test; assay type: in vivo, Echinochloa crus-galli; details: 500 g ai/ha, Flood; scale of 0 to 100 where 0 is no effect and 100 is complete control
Method in brief: as §2

galium = assay: Test A postemergence herbicide test; assay type: in vivo, Galium aparine
Method in brief: (§3)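 Plants at the one- to two-leaf stage, 2–10 cm tall, grown in loam/sand pots, received postemergence sprays of the test chemicals. After about 10 days in the greenhouse, injury was scored visually against untreated controls on a 0–100 scale (0 none, 100 complete control).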

rice = assay: Test B flooded paddy test; assay type: in vivo, Oryza sativa; details: 500 g ai/ha, Flood; scale of 0 to 100 where 0 is no effect and 100 is complete control
Method in brief: as §2

giant foxtail = assay: Test A pre-/postemergence herbicide test; assay type: in vivo, Setaria faberii
Method in brief: as §1

ryegrass, Italian = assay: Test A pre-/postemergence herbicide test; assay type: in vivo, Lolium multiflorum
Method in brief: as §1

sedge, umbrella = assay: Test B flooded paddy test; assay type: in vivo, Cyperus difformis; details: 500 g ai/ha, Flood; scale of 0 to 100 where 0 is no effect and 100 is complete control
Method in brief: as §2

kochia = assay: Test A pre-/postemergence herbicide test; assay type: in vivo, Kochia scoparia
Method in brief: as §1

ragweed = assay: Test A pre-/postemergence herbicide test; assay type: in vivo, Ambrosia elatior
Method in brief: as §1

corn = assay: Test A pre-/postemergence herbicide test; assay type: in vivo, Zea mays; details: Postemergence
Method in brief: as §1

blackgrass = assay: Test A postemergence herbicide test; assay type: in vivo, Alopecurus myosuroides
Method in brief: as §3

[3] = 125 g ai/ha, 0 to 100 scale, 0 is no effect, 100 is complete control
[4] = 125 g ai/ha, visual rating, 0 to 100 scale, 0 no effect, 100 complete control, approximately 10 days, preemergence
[5] = Postemergence, 125 g ai/ha, 0 to 100 scale, 0 is no effect, 100 is complete control
[6] = preemergence, 500 g ai/ha, 0 to 100 scale, 0 is no effect and 100 is complete control
[7] = 500 g ai/ha, 0 to 100 scale (0 no effect, 100 complete control)
[8] = Postemergence, 500 g ai/ha, 0 to 100 scale (0 no effect, 100 complete control)
[9] = 125 g ai/ha, visual rating on 0 to 100 scale (0 no effect, 100 complete control), approx. 10 days
[10] = Postemergence, 125 g ai/ha, visual rating on 0 to 100 scale (0 no effect, 100 complete control), approx. 10 days
[11] = Preemergence, 125 g ai/ha, 0 to 100 scale where 0 is no effect and 100 is complete control
[12] = Preemergence, 500 g ai/ha, visual rating on 0 to 100 scale (0 no effect, 100 complete control)

O=C1NCC(c2cccc(OC(F)F)c2)C1C(=O)Nc1ccccc1Br (stereo not drawn) [Compound 228]
30: Plant response rating, Galium (galium; [3]) | Plant response rating, Ryegrass, Italian (ryegrass, Italian; [4]) | Kochia plant response rating (0 to 100 scale, 0 is no effect, 100 is complete control) (kochia; Postemergence, 500 g ai/ha) | Corn plant response rating (0 to 100 scale, 0 is no effect, 100 is complete control) (corn; 500 g ai/ha)
50: Plant response rating, Barnyardgrass (barnyardgrass [1]; [4])
90: Plant response rating, Ducksalad (ducksalad) | Foxtail, Giant plant response rating (0 to 100 scale, 0 is no effect, 100 is complete control) (giant foxtail; Postemergence, 500 g ai/ha) | Plant response rating, Foxtail, Giant (giant foxtail; [6])
70: Plant response rating, Foxtail, Giant (giant foxtail; [5])
80: Barnyardgrass plant response rating (0 to 100 scale, 0 is no effect, 100 is complete control) (barnyardgrass [1]; Postemergence, 500 g ai/ha) | Plant response rating, Barnyardgrass (barnyardgrass [1]; [6]) | Plant response rating, Foxtail, Giant (giant foxtail; [4])
40: Galium plant response rating (0 to 100 scale, 0 is no effect, 100 is complete control) (galium; 500 g ai/ha) | Plant response rating, Ryegrass, Italian (ryegrass, Italian; [6]) | Blackgrass plant response rating (0 to 100 scale, 0 is no effect, 100 is complete control) (blackgrass; 500 g ai/ha)
0: Plant response rating, Wheat (wheat; [3]) | Plant response rating, Pigweed (pigweed; [4]) | Plant response rating, Pigweed (pigweed; [5]) | Pigweed plant response rating (0 to 100 scale, 0 is no effect, 100 is complete control) (pigweed; Postemergence, 500 g ai/ha) | Plant response rating, Pigweed (pigweed; [6]) | Plant response rating, Barnyardgrass (barnyardgrass [2]) | Plant response rating, Rice (rice) | Plant response rating, Ryegrass, Italian (ryegrass, Italian; [5]) | Plant response rating, Sedge, Umbrella (sedge, umbrella) | Plant response rating, Kochia (kochia; [4]) | Plant response rating, Ragweed (ragweed; [4]) | Plant response rating, Ragweed (ragweed; [5])
60: Plant response rating, Barnyardgrass (barnyardgrass [1]; [5])
20: Wheat plant response rating (0 to 100 scale, 0 is no effect, 100 is complete control) (wheat; 500 g ai/ha) | Ryegrass, Italian plant response rating (0 to 100 scale, 0 is no effect, 100 is complete control) (ryegrass, Italian; Postemergence, 500 g ai/ha) | Plant response rating, Kochia (kochia; [5]) | Plant response rating, Kochia (kochia; [6]) | Ragweed plant response rating (0 to 100 scale, 0 is no effect, 100 is complete control) (ragweed; Postemergence, 500 g ai/ha) | Plant response rating, Ragweed (ragweed; [6]) | Plant response rating, Corn (corn; [3]) | Plant response rating, Blackgrass (blackgrass; [3])

O=C1NCC(c2ccc(F)cc2)C1C(=O)Nc1ccccc1F (stereo not drawn) [Compound 239]
50: Plant response rating, Barnyardgrass (barnyardgrass [1]; [4]) | Plant response rating, Barnyardgrass (barnyardgrass [1]; [5]) | Plant response rating, Barnyardgrass (barnyardgrass [2]) | Plant response rating, Foxtail, Giant (giant foxtail; [5])
20: Plant response rating, Wheat (wheat; [7]) | Plant response rating, Ryegrass, Italian (ryegrass, Italian; [8]) | Plant response rating, Kochia (kochia; [8]) | Plant response rating, Blackgrass (blackgrass; [3]) | Plant response rating, Blackgrass (blackgrass; [7])
100: Plant response rating, Ducksalad (ducksalad)
70: Plant response rating, Kochia (kochia; [6])
90: Plant response rating, Barnyardgrass (barnyardgrass [1]; [8]) | Plant response rating, Barnyardgrass (barnyardgrass [1]; [6]) | Plant response rating, Foxtail, Giant (giant foxtail; [8]) | Plant response rating, Foxtail, Giant (giant foxtail; [6]) | Plant response rating, Ragweed (ragweed; [6])
80: Plant response rating, Foxtail, Giant (giant foxtail; [4])
0: Plant response rating, Wheat (wheat; [3]) | Plant response rating, Pigweed (pigweed; [4]) | Plant response rating, Pigweed (pigweed; [5]) | Plant response rating, Pigweed (pigweed; [8]) | Plant response rating, Pigweed (pigweed; [6]) | Plant response rating, Galium (galium; [3]) | Plant response rating, Rice (rice) | Plant response rating, Ryegrass, Italian (ryegrass, Italian; [4]) | Plant response rating, Ryegrass, Italian (ryegrass, Italian; [5]) | Plant response rating, Ryegrass, Italian (ryegrass, Italian; [6]) | Plant response rating, Sedge, Umbrella (sedge, umbrella) | Plant response rating, Kochia (kochia; [4]) | Plant response rating, Kochia (kochia; [5]) | Plant response rating, Ragweed (ragweed; [4]) | Plant response rating, Ragweed (ragweed; [5]) | Plant response rating, Ragweed (ragweed; [8]) | Plant response rating, Corn (corn; [3]) | Plant response rating, Corn (corn; [7])
30: Plant response rating, Galium (galium; [7])

CC(C)N1CC(c2ccc(F)cc2)C(C(=O)Nc2cccc(F)c2F)C1=O (stereo not drawn) [Compound 276]
30: Plant response rating, Ducksalad (ducksalad)
0: Plant response rating, Wheat (wheat; [9]) | Plant response rating, Wheat (wheat; [7]) | Plant response rating, Pigweed (pigweed; [10]) | Plant response rating, Pigweed (pigweed; [8]) | Plant response rating, Pigweed (pigweed; [11]) | Plant response rating, Pigweed (pigweed; [6]) | Plant response rating, Barnyardgrass (barnyardgrass [1]; [5]) | Plant response rating, Barnyardgrass (barnyardgrass [1]; [8]) | Plant response rating, Barnyardgrass (barnyardgrass [1]; [11]) | Plant response rating, Barnyardgrass (barnyardgrass [1]; [6]) | Plant response rating, Barnyardgrass (barnyardgrass [2]) | Plant response rating, Galium (galium; [3]) | Plant response rating, Galium (galium; [7]) | Plant response rating, Rice (rice) | Plant response rating, Foxtail, Giant (giant foxtail; [5]) | Plant response rating, Foxtail, Giant (giant foxtail; [8]) | Plant response rating, Foxtail, Giant (giant foxtail; [11]) | Plant response rating, Foxtail, Giant (giant foxtail; [6]) | Plant response rating, Ryegrass, Italian (ryegrass, Italian; [10]) | Plant response rating, Ryegrass, Italian (ryegrass, Italian; [8]) | Plant response rating, Ryegrass, Italian (ryegrass, Italian; [11]) | Plant response rating, Ryegrass, Italian (ryegrass, Italian; [6]) | Plant response rating, Sedge, Umbrella (sedge, umbrella) | Plant response rating, Kochia (kochia; [5]) | Plant response rating, Kochia (kochia; [8]) | Plant response rating, Kochia (kochia; [11]) | Plant response rating, Kochia (kochia; [6]) | Plant response rating, Ragweed (ragweed; [10]) | Plant response rating, Ragweed (ragweed; [8]) | Plant response rating, Ragweed (ragweed; [11]) | Plant response rating, Ragweed (ragweed; [6]) | Plant response rating, Corn (corn; [3]) | Plant response rating, Corn (corn; [7]) | Plant response rating, Blackgrass (blackgrass; [3]) | Plant response rating, Blackgrass (blackgrass; [7])

O=C1NCC(c2ccc(Cl)o2)C1C(=O)Nc1ccccc1F (stereo not drawn) [Compound 284]
80: Plant response rating, Ducksalad (ducksalad)
10: Plant response rating, Rice (rice) | Plant response rating, Foxtail, Giant (giant foxtail; [8])
50: Plant response rating, Barnyardgrass (barnyardgrass [1]; [8])
0: Plant response rating, Wheat (wheat; [9]) | Plant response rating, Wheat (wheat; [7]) | Plant response rating, Pigweed (pigweed; [10]) | Plant response rating, Pigweed (pigweed; [8]) | Plant response rating, Pigweed (pigweed; [11]) | Plant response rating, Barnyardgrass (barnyardgrass [1]; [10]) | Plant response rating, Barnyardgrass (barnyardgrass [1]; [11]) | Plant response rating, Barnyardgrass (barnyardgrass [2]) | Plant response rating, Galium (galium; [9]) | Plant response rating, Foxtail, Giant (giant foxtail; [10]) | Plant response rating, Ryegrass, Italian (ryegrass, Italian; [10]) | Plant response rating, Ryegrass, Italian (ryegrass, Italian; [8]) | Plant response rating, Ryegrass, Italian (ryegrass, Italian; [11]) | Ryegrass, Italian plant response rating (ryegrass, Italian; [12]) | Plant response rating, Sedge, Umbrella (sedge, umbrella) | Plant response rating, Kochia (kochia; [10]) | Plant response rating, Kochia (kochia; [8]) | Plant response rating, Kochia (kochia; [11]) | Plant response rating, Ragweed (ragweed; [10]) | Plant response rating, Ragweed (ragweed; [8]) | Plant response rating, Ragweed (ragweed; [11]) | Plant response rating, Ragweed (ragweed; [6]) | Plant response rating, Corn (corn; [9]) | Plant response rating, Corn (corn; [7]) | Plant response rating, Blackgrass (blackgrass; [9]) | Plant response rating, Blackgrass (blackgrass; [7])
60: Plant response rating, Barnyardgrass (barnyardgrass [1]; [6]) | Plant response rating, Galium (galium; [7])
70: Plant response rating, Foxtail, Giant (giant foxtail; [6])
40: Plant response rating, Pigweed (pigweed; [6]) | Plant response rating, Foxtail, Giant (giant foxtail; [11])
30: Plant response rating, Kochia (kochia; [6])

O=C1NCC(c2ccc(Cl)o2)C1C(=O)Nc1cccc(F)c1F (stereo not drawn) [Compound 285]
10: Plant response rating, Foxtail, Giant (giant foxtail; [6])
20: Plant response rating, Barnyardgrass (barnyardgrass [1]; [10]) | Plant response rating, Barnyardgrass (barnyardgrass [2])
100: Plant response rating, Ducksalad (ducksalad)
70: Plant response rating, Barnyardgrass (barnyardgrass [1]; [8])
0: Plant response rating, Wheat (wheat; [9]) | Plant response rating, Wheat (wheat; [7]) | Plant response rating, Pigweed (pigweed; [10]) | Plant response rating, Pigweed (pigweed; [8]) | Plant response rating, Pigweed (pigweed; [11]) | Plant response rating, Pigweed (pigweed; [6]) | Plant response rating, Barnyardgrass (barnyardgrass [1]; [11]) | Plant response rating, Barnyardgrass (barnyardgrass [1]; [6]) | Plant response rating, Galium (galium; [9]) | Plant response rating, Galium (galium; [7]) | Plant response rating, Rice (rice) | Plant response rating, Foxtail, Giant (giant foxtail; [10]) | Plant response rating, Foxtail, Giant (giant foxtail; [8]) | Plant response rating, Foxtail, Giant (giant foxtail; [11]) | Plant response rating, Ryegrass, Italian (ryegrass, Italian; [10]) | Plant response rating, Ryegrass, Italian (ryegrass, Italian; [8]) | Plant response rating, Ryegrass, Italian (ryegrass, Italian; [11]) | Ryegrass, Italian plant response rating (ryegrass, Italian; [12]) | Plant response rating, Sedge, Umbrella (sedge, umbrella) | Plant response rating, Kochia (kochia; [10]) | Plant response rating, Kochia (kochia; [8]) | Plant response rating, Kochia (kochia; [11]) | Plant response rating, Kochia (kochia; [6]) | Plant response rating, Ragweed (ragweed; [10]) | Plant response rating, Ragweed (ragweed; [8]) | Plant response rating, Ragweed (ragweed; [11]) | Plant response rating, Ragweed (ragweed; [6]) | Plant response rating, Corn (corn; [9]) | Plant response rating, Corn (corn; [7]) | Plant response rating, Blackgrass (blackgrass; [9]) | Plant response rating, Blackgrass (blackgrass; [7])
